Patent US12187722B2, “Small molecule inhibitors of TEAD transcription factors” (The General Hospital Corporation, priority 2019, dated 2025)
“And” between values parts separate entries of the source, which are not always exact repeats. Identical values can stand only once.

Molecular target: TEAD2 (Homo sapiens (Human), UniProt Q15562)
Experiment: In vitro palmitoylation (TEAD2 autopalmitoylation, streptavidin blot)
Type: biochemical
Settings: compound at 10 μM; Table 2
Method in brief: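 Autopalmitoylation read by streptavidin-HRP Western blot after CuSO4/TBTA/TCEP click with 100 μM biotin-azide, 1 h RT, with His-HRP probed separately. Before that, TEAD2 protein (GST or His6, 500 ng) given compound for 15 min then 1 μM alkyne palmitoyl-CoA for 30 min; percent inhibition versus DMSO-treated samples.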

TEAD2, sequence (Q15562 whole entry): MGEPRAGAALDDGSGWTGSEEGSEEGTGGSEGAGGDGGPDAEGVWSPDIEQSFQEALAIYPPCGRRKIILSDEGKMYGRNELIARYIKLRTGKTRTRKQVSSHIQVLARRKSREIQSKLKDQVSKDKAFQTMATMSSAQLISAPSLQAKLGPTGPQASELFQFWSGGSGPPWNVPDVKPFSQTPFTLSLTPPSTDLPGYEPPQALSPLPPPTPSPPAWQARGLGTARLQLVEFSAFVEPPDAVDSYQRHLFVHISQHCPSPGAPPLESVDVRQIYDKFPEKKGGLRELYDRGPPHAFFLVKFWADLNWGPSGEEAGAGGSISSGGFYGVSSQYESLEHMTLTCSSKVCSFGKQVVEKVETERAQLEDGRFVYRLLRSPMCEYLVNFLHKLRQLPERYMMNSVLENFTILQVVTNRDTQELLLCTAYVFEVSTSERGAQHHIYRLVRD

inhibition at 10 µM	% of inhibition of TEAD2 palmitoylation at 10 μM	Structure (SMILES)
90%		O=C(O)c1ccnc(Nc2ccc(Nc3ccc(C45CC6CC(CC(C6)C4)C5)cc3Cl)cc2)c1 [Compound 89]
97%		O=C(O)c1cccnc1Nc1ccc(Nc2ccc(C34CC5CC(CC(C5)C3)C4)cc2Cl)nc1 [Compound 91]
90%		O=C(O)c1cccnc1Nc1ccc(C23CC4CC(CC(C4)C2)C3)cc1Br [Compound 92]
72%		O=C(O)C1CNCC1Nc1ccc(Nc2ccc(C34CC5CC(CC(C5)C3)C4)cc2Cl)cc1 (centres unmarked) [Compound 93]
91%		CC(C)(C)OC(=O)NC(Cc1ccc(Nc2ccc(C34CC5CC(CC(C5)C3)C4)cc2Cl)cc1)C(=O)O (centres unmarked) [Compound 94]
97%		NC(Cc1ccc(Nc2ccc(C34CC5CC(CC(C5)C3)C4)cc2Cl)cc1)C(=O)O (centres unmarked) [Compound 95]
96%		O=C(O)c1cccnc1Nc1cccc(C23CC4CC(CC(C4)C2)C3)c1 [Compound 96]
60%		O=C(O)c1cccc2nc(-c3cccc(C45CC6CC(CC(C6)C4)C5)c3)[nH]c12 [Compound 97]
89%		O=C(NC12CC3CC(CC(C3)C1)C2)c1ccc(Nc2ccc(Nc3ccccc3C(=O)O)cc2)cc1 [Compound 98]
85%		CN(c1ccc(Nc2ccc(C34CC5CC(CC(C5)C3)C4)cc2)cc1)c1ccccc1C(=O)O [Compound 99]
62%		O=C(O)Cn1ncc2cc(Nc3ccc(C45CC6CC(CC(C6)C4)C5)cc3Cl)ccc21 [Compound 101]
77%		CC1(C)OC(C(=O)O)C(C(=O)Nc2ccc(Nc3ccc(C45CC6CC(CC(C6)C4)C5)cc3Cl)cc2)O1 (centres unmarked) [Compound 102]
53%		O=C(O)C1CCCN1Cc1ccc(Nc2ccc(C34CC5CC(CC(C5)C3)C4)cc2Cl)cc1 (centres unmarked) [Compound 103]
80%		O=C(O)c1cccnc1Nc1ccc(Nc2cccc(C34CC5CC(CC(C5)C3)C4)c2)cc1 [Compound 104]
96%		Clc1cc(C23CC4CC(CC(C4)C2)C3)ccc1Nc1ccc(Cn2ccnc2)cc1 [Compound 105]
0%		O=C(O)c1cccnc1N1CCN(Cc2ccc(C34CC5CC(CC(C5)C3)C4)cc2Cl)CC1 [Compound 106]
14%		O=C(O)c1cccnc1CN1CCN(Cc2ccc(C34CC5CC(CC(C5)C3)C4)cc2Cl)CC1 [Compound 107]
86%		O=C(O)Cn1cnc2cc(Nc3ccc(C45CC6CC(CC(C6)C4)C5)cc3Cl)ccc21 [Compound 108]
85%		O=C(O)Cn1cc2cc(Nc3ccc(C45CC6CC(CC(C6)C4)C5)cc3Cl)ccc2n1 [Compound 110]
80%		O=C(O)c1cccnc1Nc1cccc(Nc2cccc(C34CC5CC(CC(C5)C3)C4)c2)c1 [Compound 111]
100%		CC(C)c1ccccc1Cc1cccc(Nc2ncccc2C(=O)O)c1 [Compound 113]
98%		O=C(O)c1cccnc1Nc1cccc(Nc2ccc(C34CC5CC(CC(C5)C3)C4)cc2Cl)c1 [Compound 114]
67%		O=C(O)c1cncc(Nc2ccc(Nc3ccc(C45CC6CC(CC(C6)C4)C5)cc3Cl)cc2)n1 [Compound 115]
91%		O=C(O)c1cncc(Nc2ccc(Nc3ccc(C45CC6CC(CC(C6)C4)C5)cc3Cl)cc2)c1 [Compound 116]
9%		O=C(O)c1cc(Nc2ccc(Nc3ccc(C45CC6CC(CC(C6)C4)C5)cc3Cl)cc2)ccn1 [Compound 117]
78%		O=C(O)Cn1ncc2ccc(Nc3ccc(C45CC6CC(CC(C6)C4)C5)cc3Cl)cc21 [Compound 118]

inhibition at 10 µM	% of inhibition of TEAD2 palmitoylation at 10 μM	Structure (SMILES)
79%		CC1(C)OC(C(=O)O)C(C(=O)Nc2cc(Nc3ccc(C45CC6CC(CC(C6)C4)C5)cc3Cl)cc(C(F)(F)F)c2)O1 (centres unmarked) [Compound 120]
80%		O=C(O)c1cnn(Cc2ccc(Nc3ccc(C45CC6CC(CC(C6)C4)C5)cc3Cl)cc2)c1 [Compound 121]
95%		O=C(O)c1cccnc1Cc1ccc(Nc2ccc(C34CC5CC(CC(C5)C3)C4)cc2Cl)cc1 [Compound 122]
88%		O=C(O)C1CCCN(C(=O)c2ccc(Nc3ccc(C45CC6CC(CC(C6)C4)C5)cc3Cl)cc2)C1 (centres unmarked) [Compound 123]
86%		O=C(O)c1cccn1Cc1ccc(Nc2ccc(C34CC5CC(CC(C5)C3)C4)cc2Cl)cc1 [Compound 124]
86%		O=C(O)Cn1ccc2ccc(Nc3ccc(C45CC6CC(CC(C6)C4)C5)cc3Cl)cc21 [Compound 126]
27%		O=C(O)c1cn(Cc2cccc(Nc3ccc(C45CC6CC(CC(C6)C4)C5)cc3Cl)c2)cn1 [Compound 127]
92%		O=C(O)c1cncn1Cc1cccc(Nc2ccc(C34CC5CC(CC(C5)C3)C4)cc2Cl)c1 [Compound 128]
41%		O=C(O)c1cccnc1Nc1ncn(Cc2ccc(C34CC5CC(CC(C5)C3)C4)cc2Cl)n1 [Compound 129]
100%		O=C(O)Cn1ccc2cc(Nc3ccc(C45CC6CC(CC(C6)C4)C5)cc3Cl)ccc21 [Compound 130]
37%		O=C(O)c1cccnc1Nc1ccc2c(c1)N(Cc1ccc(C34CC5CC(CC(C5)C3)C4)cc1Cl)CC2 [Compound 131]
100%		CN(c1cccc(N(C)c2ncccc2C(=O)O)c1)c1ccc(C23CC4CC(CC(C4)C2)C3)cc1Cl [Compound 132]
93%		CN(c1cnn(Cc2ccc(C34CC5CC(CC(C5)C3)C4)cc2Cl)c1)c1ncccc1C(=O)O [Compound 133]
0%		O=C(O)c1cccnc1Nc1cn(Cc2ccc(C34CC5CC(CC(C5)C3)C4)cc2Cl)cn1 [Compound 134]
100%		CN(c1cccc(Nc2ccc(C34CC5CC(CC(C5)C3)C4)cc2Cl)c1)c1ncccc1C(=O)O [Compound 135]
99%		O=C(O)c1cccnc1Oc1ccc(Nc2ccc(C34CC5CC(CC(C5)C3)C4)cc2Cl)cc1 [Compound 136]
99%		O=C(O)c1cccnc1CN1CCC(Nc2ccc(C34CC5CC(CC(C5)C3)C4)cc2Cl)C1 (centres unmarked) [Compound 137]
24%		CN(c1ccc(Nc2ccc(C34CC5CC(CC(C5)C3)C4)cc2)cc1)c1ncccc1C(=O)O [Compound 138]
99%		CN(c1ccc(C23CC4CC(CC(C4)C2)C3)cc1)c1cccc(N(C)c2ncccc2C(=O)O)c1 [Compound 140]
95%		O=C(O)c1cccnc1CN1CCCC(Nc2ccc(C34CC5CC(CC(C5)C3)C4)cc2Cl)C1 (centres unmarked) [Compound 141]
65%		CN(c1ccc(Nc2ncccc2C(=O)O)cc1)c1ccc(C23CC4CC(CC(C4)C2)C3)cc1Cl [Compound 142]
22%		O=C(O)C1CCCN(Cc2ccc(Nc3ccc(C45CC6CC(CC(C6)C4)C5)cc3Cl)cc2)C1 (centres unmarked) [Compound 143]
100%		CN(c1cnc(Nc2ccc(C34CC5CC(CC(C5)C3)C4)cc2Cl)cn1)c1ccccc1C(=O)O [Compound 144]
	61% and 84%	O=C(Nc1ccc(C23CC4CC(CC(C4)C2)C3)cc1)c1ccc(Nc2ncccc2C(=O)O)cc1 [Compound 145]
70%		CN(c1ccc(C(=O)Nc2ccc(C34CC5CC(CC(C5)C3)C4)cc2)cc1)c1ncccc1C(=O)O [Compound 147]
56%	69%	O=C(Nc1ccc(C23CC4CC(CC(C4)C2)C3)cc1)c1ccc(Nc2cccc(C(=O)O)n2)cc1 [Compound 148]
